Results: patent US5663159A, “Prodrugs of phosphonates” (Institute of Organic Chemistry and Biochemistry of the …, priority 1994, dated 1997)
In brackets after ≈: the same amount, converted by molar mass. Entries after “also recorded” stand apart in the source; their conditions may differ. Where a name gives a salt, the structure may show the parent alone. Read-outs that look alike come from different tables or passages of the source.

Columns and labels:
P388 leukemia = settings: murine tumor model; cited from earlier work
[1] = test system: murine sarcoma virus (MSV); settings: literature; cited from earlier work
[2] = test system: African swine fever (ASF) virus; settings: literature; cited from earlier work
[3] = test system: herpes simplex virus, type 1 (HSV-1); settings: literature; cited from earlier work
[4] = test system: equid herpesviruse type 1 (equine abortion virus, EHV-1); settings: literature; cited from earlier work
[5] = test system: bovid herpesvirus type 1 (infectious bovine rhinotracheitis virus, BHV-1); settings: literature; cited from earlier work
[6] = test system: herpes simplex virus, type 2 (HSV-2); settings: literature; cited from earlier work
[7] = test system: herpes simplex virus type 1; settings: mice in vivo; including herpetic keratitis caused by a TK^- mutant; cited from earlier work
[8] = test system: suid herpesvirus type 1 (SHV-1, or pseudorabies virus or Aujeszky's disease virus); settings: literature; cited from earlier work
[9] = test system: human cytomegalovirus (HCMV); settings: literature; cited from earlier work
[10] = test system: varicella zoster virus (VZV); settings: literature; cited from earlier work
[11] = test system: herpes simplex virus type 1; settings: rabbits in vivo; including herpetic keratitis caused by a TK^- mutant; cited from earlier work
vaccinia virus = settings: literature; cited from earlier work
[12] = test system: phocid herpesvirus type 1 (seal herpesvirus, SeHV); settings: literature; cited from earlier work
[13] = test system: simian herpesvirus platyrrhinae (HVP); settings: literature; cited from earlier work
adenovirus = settings: literature; cited from earlier work
[14] = test system: thymidine kinase-deficient (TK^-) mutants of herpes simplex; settings: literature; cited from earlier work
HSV-2 (G STRAIN) = test: In vitro activity of PMEA prodrugs against HSV-2 (G strain), plaque reduction; format: cell-based; settings: for IC50: Human alphaherpesvirus 2, dose which gives a 50% reduction of plaque formation, read-out: ID50 (the source's name); for ID50: dose which gives a 50% reduction of plaque formation
Excerpt: PRODRUGS AGAINST HSV-2 (G STRAIN)
^a DOSE WHICH GIVES A 50% REDUCTION OF PLACQUE FORMATION

[15] = test system: murine cytomegalovirus (MCMV); settings: cited from earlier work
[16] = test system: Rauscher murine leukemia virus (R-MuLV); settings: mice; vs 3'-azido-3'-deoxythymidine (AZT); cited from earlier work
[17] = test system: Rauscher murine leukemia virus (R-MuLV); settings: cited from earlier work
[18] = test system: human immunodeficiency virus (HIV); settings: literature, cited from earlier work
[19] = Toxicity in the in vitro HSV-2 test
HSV 1 = settings: in vivo, mice; more potent than acyclovir; cited from earlier work
B16 melanoma = settings: murine tumor model; cited from earlier work
herpes viruses = settings: cited from earlier work

## Nc1ncnc2c1ncn2C[C@@H](CO)OCP(=O)(O)O [(S)-HPMPA, (S)-9-((3-hydroxy-2-phosphonylmethoxy)propyl)adenine]
P388 leukemia
  activity against intraperitoneal P388 leukemia: active
[1]
  activity against MSV: potent and selective activity
[2]
  activity against ASF virus: potent and selective activity
[3]
  activity against HSV-1: potent and selective activity; also recorded: active
[4]
  activity against EHV-1: potent and selective activity
[5]
  activity against BHV-1: potent and selective activity
[6]
  activity against HSV-2: potent and selective activity; also recorded: active
[7]
  efficacy against local and systemic HSV-1 infections: effective
[8]
  activity against SHV-1: potent and selective activity
[9]
  activity against HCMV: potent and selective activity
[10]
  activity against VZV: potent and selective activity; also recorded: active
[11]
  efficacy against local and systemic HSV-1 infections: effective
Vaccinia virus
  activity against vaccinia virus: potent and selective activity; also recorded: active
[12]
  activity against SeHV: potent and selective activity
[13]
  activity against HVP: potent and selective activity
adenovirus
  activity against adenovirus: potent and selective activity; also recorded: active
[14]
  activity against TK^- mutants of herpes simplex: potent and selective activity

## Nc1ccn(C[C@@H](CO)OCP(=O)(O)O)c(=O)n1 [(S)-HPMPC]
[3]
  activity against HSV-1: active
[6]
  activity against HSV-2: active
[9]
  activity against HCMV: active

## Nc1nc(N)c2ncn(C[C@@H](CO)OCP(=O)(O)O)c2n1 [(S)-HPMPDAP]
[3]
  activity against HSV-1: active
[6]
  activity against HSV-2: active

## Nc1nc2c(ncn2C[C@@H](CO)OCP(=O)(O)O)c(=O)[nH]1 [(S)-HPMPG]
[3]
  activity against HSV-1: active
[6]
  activity against HSV-2: active

## Nc1ncnc2c1ncn2C[C@H]1COP(=O)(O)CO1 [(S)-cyclic HPMPA]
[3]
  activity against HSV-1: active
[6]
  activity against HSV-2: active
[10]
  activity against VZV: active
Vaccinia virus
  activity against vaccinia virus: active
adenovirus
  activity against adenovirus: active

## Nc1ncnc2c1ncn2CCOCP(=O)(O)O [Example 1, 9-(2-Phosphonylmethoxy)ethyladenine]
P388 leukemia
  activity against intraperitoneal P388 leukemia: active
HSV-2 (G STRAIN)
  IC50: 39 µg/mL (≈ 143 µM)
[3]
  activity against HSV-1: active
In vitro
  CC50: > 166 µg/mL
[15]
  antiviral effect in vivo against MCMV: significant antiviral effect
[6]
  activity against HSV-2: active
[9]
  activity against HCMV: in vitro activity
[16]
  potency in vivo relative to AZT in the treatment of R-MuLV: more potent in vivo
[17]
  in vitro activity against R-MuLV: good in vitro activity
[18]; listed as PMEA
  activity against HIV: active; also recorded: good in vitro activity

## CC(C)(C)C(=O)OCOP(=O)(COCCn1cnc2c(N)ncnc21)OCOC(=O)C(C)(C)C [Example 9, PMEA, di(pivaloyloxymethyl ester)]
HSV-2 (G STRAIN)
  IC50: 0.28 µg/mL (≈ 0.558 µM)
In vitro
  CC50: 100 µg/mL (≈ 199 µM)

## CCC(=O)OCOP(=O)(COCCn1cnc2c(N)ncnc21)OCOC(=O)CC [Example 12, PMEA, di-(propionyloxymethyl ester)]
HSV-2 (G STRAIN)
  IC50: 0.17 µg/mL (≈ 0.382 µM)
In vitro
  CC50: 100 µg/mL (≈ 225 µM)

## CC(C)C(=O)OCOP(=O)(COCCn1cnc2c(N)ncnc21)OCOC(=O)C(C)C [Example 13, PMEA, di-(isobutyrloxymethyl ester)]
HSV-2 (G STRAIN)
  IC50: < 0.1 µg/mL
In vitro
  CC50: 100 µg/mL (≈ 211 µM)

## CC(C)(C)C(=O)OCOP(=O)(O)COCCn1cnc2c(N)ncnc21 [Example 15, PMEA, mono pivaloyloxymethyl ester]
HSV-2 (G STRAIN)
  IC50: 8.1 µg/mL (≈ 20.9 µM)
[19]
  CC50: 100 µg/mL (≈ 258 µM)

## CC(C)OP(=O)(COCCn1cnc2c(N)ncnc21)Oc1ccccc1 (centres unmarked) [Example 16, PMEA, (mono isopropyl, monophenyl) ester]
HSV-2 (G STRAIN)
  ID50: > 100 µg/mL
[19]
  CC50: 100 µg/mL (≈ 256 µM)

## Nc1ncnc2c1ncn2CCOCP(=O)(O)OCCCO [Example 22, PMEA, 3-hydroxypropanyl ester, (sodium salt)]
HSV-2 (G STRAIN)
  IC50: 110 µg/mL
In vitro
  CC50: > 166 µg/mL

## Nc1ncnc2c1ncn2CCOCP(=O)(O)Oc1ccccc1 [Example 34, PMEA, monophenyl ester (sodium salt)]
HSV-2 (G STRAIN)
  ID50: 42 µg/mL
[19]
  CC50: > 166 µg/mL

## Nc1ncnc2c1ncn2CCOCP(=O)(Oc1ccccc1)Oc1ccccc1 [Example 35, PMEA, diphenyl ester]
HSV-2 (G STRAIN)
  ID50: 34 µg/mL (≈ 79.9 µM)
[19]
  CC50: > 166 µg/mL

## Nc1nc(N)c2ncn(CCOCP(=O)(O)O)c2n1 [PMEDAP]
[3]
  activity against HSV-1: active
[6]
  activity against HSV-2: active
[18]
  activity against HIV: active

## Nc1nc2c(ncn2CCOCP(=O)(O)O)c(=O)[nH]1 [PMEG]
HSV 1
  potency relative to acyclovir against HSV 1 infection: > 50 fold
B16 melanoma
  activity against B16 melanoma: active
P388 leukemia
  activity against intraperitoneal P388 leukemia: active
[3]
  activity against HSV-1: active
[6]
  activity against HSV-2: active
Herpes viruses
  in vitro potency against herpes viruses: exceptionally potent

## Nc1ncc2ncn(CCOCP(=O)(O)O)c2n1 [PMEMAP]
[18]
  activity against HIV: active
